Data as given in patent publication US20240270821A1, “GIP/GLP1/GCG TRI-RECEPTOR AGONISTS AND USES THEREOF” (priority 2023, published 2024).
Like-named read-outs stand apart in the source and are kept apart here. Starred links: 1 amine or outer side, 2 acyl side, 3 side chain; linkers in the order of their positions; H or OH if unused. Non-standard residues stand in square brackets, D forms with d. Groups on a side chain read outwards from the residue. *: point of attachment. C20 diacid = O=C(O)CCCCCCCCCCCCCCCCCCC(=O)*; C18 diacid = O=C(O)CCCCCCCCCCCCCCCCC(=O)*; γGlu = O=C(O)[C@H](CCC(=O)[*:2])N[*:1]; αMe4Pal = C[C@](N)(Cc1ccncc1)C(=O)O; αMeL = CC(C)C[C@](C)(N)C(=O)O; Orn = NCCC[C@H](N)C(=O)O; Dap = NC[C@H](N)C(=O)O; AEEA = NCCOCCOCC(=O)O; Aib = CC(C)(N)C(=O)O

Legend:
Assay type in all cases: cell-based
[1] = biological target: T1, hGIPR (Homo sapiens, UniProt P48546); assay: Functional cAMP activity in the presence of 1% HSA
T1 sequence (P48546 22-466): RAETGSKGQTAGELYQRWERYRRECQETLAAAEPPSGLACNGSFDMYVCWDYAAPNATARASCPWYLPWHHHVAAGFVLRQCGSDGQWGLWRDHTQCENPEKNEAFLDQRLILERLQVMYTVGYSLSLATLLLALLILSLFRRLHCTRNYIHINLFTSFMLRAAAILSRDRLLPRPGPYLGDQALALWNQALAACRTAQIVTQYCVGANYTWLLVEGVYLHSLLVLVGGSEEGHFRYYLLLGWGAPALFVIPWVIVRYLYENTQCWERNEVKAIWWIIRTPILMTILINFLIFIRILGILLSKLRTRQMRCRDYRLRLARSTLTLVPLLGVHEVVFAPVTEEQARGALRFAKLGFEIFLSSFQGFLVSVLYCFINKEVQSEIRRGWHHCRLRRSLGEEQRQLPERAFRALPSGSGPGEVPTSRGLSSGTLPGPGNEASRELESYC

[2] = biological target: T2, hGLP-1R (Homo sapiens, UniProt P43220); assay: Functional cAMP activity in the presence of 1% HSA
T2 sequence (P43220 24-463): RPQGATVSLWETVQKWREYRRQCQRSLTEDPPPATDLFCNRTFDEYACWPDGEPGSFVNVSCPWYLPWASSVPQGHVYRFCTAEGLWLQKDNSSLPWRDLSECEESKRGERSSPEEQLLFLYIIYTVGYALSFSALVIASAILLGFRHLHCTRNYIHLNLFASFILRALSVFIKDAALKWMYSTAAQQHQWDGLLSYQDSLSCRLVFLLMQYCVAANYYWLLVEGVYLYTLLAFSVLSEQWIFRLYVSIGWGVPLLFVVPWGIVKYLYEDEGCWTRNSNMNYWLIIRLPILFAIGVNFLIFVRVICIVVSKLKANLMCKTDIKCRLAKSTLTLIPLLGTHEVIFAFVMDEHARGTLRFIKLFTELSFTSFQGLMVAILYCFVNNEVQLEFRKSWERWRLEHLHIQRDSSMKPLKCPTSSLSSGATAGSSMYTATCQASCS

[3] = biological target: human GcgR (Homo sapiens, UniProt P47871); assay: Functional cAMP activity in the presence of 1% HSA
human GcgR, sequence (P47871 26-477): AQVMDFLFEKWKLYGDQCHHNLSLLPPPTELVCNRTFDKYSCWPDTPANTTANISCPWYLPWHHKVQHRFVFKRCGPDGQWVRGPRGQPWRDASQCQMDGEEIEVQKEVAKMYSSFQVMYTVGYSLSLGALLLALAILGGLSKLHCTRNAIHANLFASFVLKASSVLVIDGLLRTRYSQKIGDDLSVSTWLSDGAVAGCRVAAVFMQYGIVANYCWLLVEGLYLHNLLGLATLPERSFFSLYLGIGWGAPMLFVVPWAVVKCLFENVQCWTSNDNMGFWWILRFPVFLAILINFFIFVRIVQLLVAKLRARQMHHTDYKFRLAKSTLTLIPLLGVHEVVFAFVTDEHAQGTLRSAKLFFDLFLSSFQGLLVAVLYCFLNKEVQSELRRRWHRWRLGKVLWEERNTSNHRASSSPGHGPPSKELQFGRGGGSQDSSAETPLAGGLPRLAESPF

[4] = biological target: T1, hGIPR; assay: Functional cAMP activation in the presence of 0.1% casein (no HSA);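 on Relative cAMP EC50, hGIPR: intracellular cAMP rise after 30 min at 37 °C read by HTRF against a standard curve, scaled between buffer alone (0%) and top control ligand concentration (100%), four-parameter fit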;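 on Relative cAMP EC50, hGLP-1R: intracellular cAMP rise after 30 min at 37 °C read by HTRF, normalized between buffer only (0%) and maximal control ligand (100%), four-parameter variable-slope fit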;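 on Relative cAMP EC50, hGcgR: intracellular cAMP rise after 30 min at 37 °C, read by HTRF against a cAMP standard curve, scaled from buffer only (0%) to maximal control ligand response (100%)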
[5] = biological target: T2, hGLP-1R; assay: as above
[6] = biological target: hGcgR (Homo sapiens, UniProt P47871); assay: as above;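 further: intracellular cAMP rise after 30 min at 37 °C, read by HTRF against a cAMP standard curve, scaled from buffer only (0%) to maximal control ligand response (100%)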
hGcgR, sequence (P47871 26-477): as above

[7] = biological target: human GLP1-R (Homo sapiens, UniProt P43220); assay: GLP1-R internalization assay in HEK293 cells; details: for Internalization % TOP: normalized to maximum concentration of GLP-1 (100%)
human GLP1-R, sequence (P43220 24-463): as the sequence (P43220 24-463) above

[8] = read-out: cAMP Rel EC50, hGLP-1R
[9] = in the presence of 0.1% casein (no HSA), geometric mean, read-out: Relative cAMP EC50, hGIPR
[10] = in the presence of 0.1% casein (no HSA), geometric mean, read-out: Relative cAMP EC50, hGLP-1R
[11] = in the presence of 0.1% casein (no HSA), geometric mean, read-out: Relative cAMP EC50, hGcgR
[12] = HEK293 cells expressing SNAP-GLP-1R, read-out: GLP1R Internalization EC50

Substance | EC50 ([1]; read-out: cAMP Rel EC50, hGIPR) | EC50 [2, 8] | EC50 ([3]; read-out: cAMP Rel EC50, hGcgR) | EC50 [4, 9] | EC50 [5, 10] | EC50 [6, 11] | EC50 [7, 12] | Internalization % TOP [7] | EC50 [1] | EC50 [2] | EC50 [3] | EC50 [4] | EC50 [5] | EC50 [6] | EC50 [7]
H-Y[Aib]QGTFTSDFSK[αMeL]LDKK([AEEA-γGlu-C20 diacid])AQ[Aib]AFIEYLLAGGPSSGEPPPSEG[AEEA]-NH2 [Example 32] | 66.1 nM | 422 nM | 1440 nM | 0.28 nM | 2.55 nM | 11.6 nM | 86.1 nM | 64.4% |  |  |  |  |  |  | 
H-Y[Aib]QGTFTSDFSK[αMeL]LDKK([AEEA-γGlu-C20 diacid])AQ[Aib]AFIEYLLAGGPSSGEPPPSGE[AEEA]-NH2 [Example 33] | 70.7 nM | 436 nM | 1310 nM | 0.285 nM | 1.71 nM | 7.04 nM | 106 nM | 64.6% |  |  |  |  |  |  | 
H-Y[Aib]QGTFTSDFSK[αMeL]LDKK([AEEA-γGlu-C20 diacid])AQ[Aib]AFIEYLLAGGPSSGEPPPSGS-NH2 [Example 8] | 39.4 nM | 603 nM | 1560 nM | 0.231 nM | 2.11 nM | 6.65 nM | 63.2 nM | 74% |  |  |  |  |  |  | 
H-Y[Aib]QGTFTSDFSK[αMeL]LDKK([AEEA-γGlu-C20 diacid])AQ[Aib]AFIEYLLAGGPSSGEPPPSSG-NH2 [Example 7] | 50.6 nM | 494 nM | 1210 nM | 0.203 nM | 2.11 nM | 5.05 nM | 52.6 nM | 76.3% |  |  |  |  |  |  | 
H-Y[Aib]QGTFTSDFSK[αMeL]LDKK([AEEA-γGlu-C20 diacid])AQ[Aib]AFIEYLLEGGPSSGAPPPGGS-NH2 [Example 18] | 59.6 nM | 561 nM | 1210 nM | 0.337 nM | 2.31 nM | 2.7 nM | 91.8 nM | 74.1% |  |  |  |  |  |  | 
H-Y[Aib]QGTFTSDFSK[αMeL]LDKK([AEEA-γGlu-C20 diacid])AQ[Aib]AFIEYLLE[Aib]GPSSGAPPPGGS-NH2 [Example 43] | 29.6 nM | 539 nM | 850 nM | 0.101 nM | 1.55 nM | 2.71 nM | 58.2 nM | 68.3% |  |  |  |  |  |  | 
H-Y[Aib]QGTFTSDFSK[αMeL]LDKK([AEEA-γGlu-C20 diacid])AQ[Aib]AFIEYLLE[Aib]GPSSGAPPPSGS-NH2 [Example 45] | 33.4 nM | 493 nM | 879 nM | 0.112 nM | 1.52 nM | 2.08 nM | 52.6 nM | 62.1% |  |  |  |  |  |  | 
H-Y[Aib]QGTFTSDFSK[αMeL]LDKK([AEEA-γGlu-C20 diacid])AQ[Aib]AFIEYLLE[Aib]GPSSGAPPPSSG-NH2 [Example 44] |  |  |  |  |  |  | 51.5 nM | 65% | 35.9 nM | 591 nM | 1050 nM | 0.116 nM | 1.66 nM | 2.46 nM | 
H-Y[Aib]QGTFTSDFSK[αMeL]LDKK([γGlu-γGlu-C18 diacid])AQ[Aib]AFIEYLLEGGPSSGAPPPSEG-NH2 [Example 58] | 3.75 nM | 20.7 nM | 115 nM | 0.175 nM | 2.93 nM | 4.86 nM | 56.2 nM | 78.1% |  |  |  |  |  |  | 
H-Y[Aib]QGTFTSDFSQ[αMeL]LDKK([AEEA-γGlu-C18 diacid])AQ[αMe4Pal]AFIEYLIE[Aib]GESSGAPPPSGE-NH2 [Example 233] |  |  |  |  |  |  |  | 41.8% | 28.1 nM | 223 nM | 453 nM | 0.0884 nM | 0.874 nM | 2.25 nM | 24.8 nM
H-Y[Aib]QGTFTSDFSR[αMeL]LDKK([AEEA-AEEA-γGlu-C18 diacid])AQ[Aib]AFIEYLLE[Aib]GPSSGAPPPSGS-NH2 [Example 80] |  |  |  |  |  |  |  | 48.2% | 10.1 nM | 627 nM | 1190 nM | 0.0593 nM | 2.55 nM | 7.44 nM | 35.8 nM
H-Y[Aib]QGTFTSDFSR[αMeL]LDKK([AEEA-γGlu-C18 diacid])AQ[Aib]AFIEYLLE[Aib]GPSSGAPPPSGS-NH2 [Example 79] |  |  |  |  |  |  |  | 45.3% | 14.3 nM | 437 nM | 903 nM | 0.0773 nM | 1.8 nM | 3.08 nM | 56.6 nM
H-Y[Aib]QGTFTSDFSR[αMeL]LDKK([AEEA-γGlu-C18 diacid])AQ[αMe4Pal]AFIEYLIE[Aib]GESSGAPPPSGE-NH2 [Example 231] |  |  |  |  |  |  |  | 27.7% | 27.4 nM | 223 nM | 443 nM | 0.119 nM | 1.3 nM | 2.12 nM | 36.1 nM
H-Y[Aib]QGTFTSDFSR[αMeL]LDKK([AEEA-γGlu-C20 diacid])AQ[Aib]AFIEYLLE[Aib]GPSSGAPPPGGS-NH2 [Example 42] |  |  |  |  |  |  |  | 58.3% | 32.3 nM | 700 nM | 1520 nM | 0.115 nM | 2.17 nM | 5.83 nM | 61.4 nM
H-Y[Aib]QGTFTSDFS[Dap][αMeL]LDKK([AEEA-γGlu-C18 diacid])AQ[Aib]AFIEYLLEGGPSSGAPPPGGS-NH2 [Example 68] | 85.1 nM | 612 nM | 1160 nM | 0.46 nM | 3.07 nM | 8.55 nM | 95.2 nM | 33.8% |  |  |  |  |  |  | 
H-Y[Aib]QGTFTSDFS[Orn][αMeL]LDKK([AEEA-AEEA-γGlu-C18 diacid])AQ[Aib]AFIEYLLEGGPSSGAPPPGES-NH2 [Example 118] | 63.4 nM | 1450 nM | 2460 nM | 0.43 nM | 6.03 nM | 7.02 nM | 82.3 nM | 46.4% |  |  |  |  |  |  | 
H-Y[Aib]QGTFTSDFS[Orn][αMeL]LDKK([AEEA-AEEA-γGlu-C18 diacid])AQ[Aib]AFIEYLLEGGPSSGAPPPSGE-NH2 [Example 107] | 61.3 nM | 1110 nM | 1690 nM | 0.426 nM | 8.5 nM | 10.8 nM | 150 nM | 45.1% |  |  |  |  |  |  | 
H-Y[Aib]QGTFTSDFS[Orn][αMeL]LDKK([AEEA-AEEA-γGlu-C18 diacid])AQ[Aib]AFIEYLLE[Aib]GESSGAPPPSGS-NH2 [Example 179] | 21.3 nM | 904 nM | 1440 nM | 0.104 nM | 5.81 nM | 4.82 nM | 63.4 nM | 48.4% |  |  |  |  |  |  | 
